Here are results for three molecules from patent US10851402B2, “Method for in vitro detection and monitoring of a disease by measuring disease-associated protease activity in extracellular vesicles” (Friedrich-Alexander-Universitaet Erlangen-Nuernberg, priority 2013, dated 2020).

One assay concerns resting PBMC. In words: TNFα secretion of resting PBMC after incubation with EV. The assay is classed as cell-based. The following applies: EV-producing cells incubated with the inhibitor; EV incubated with resting PBMC (6 hours). The procedure:
PBMC stimulation with EV and measurement of Cytokine Secretion. PBMC ([…]) were added to each well of a 96-well-U-bottom plate in a total volume of 200 μl (RPMI). 10 μl of exosome preparation from transfected cells (corresponding to 2×10^6 cells or one 10 cm dish) were added per well and […]. When indicated 10 μl PHA (positive control), 50 μM TAPI-1 (Peptides International), or 10 μM U0126 (MAPK-Inhibitor, Promega) were used. Cytokines in the supernatant (200 μl) were measured via the CBA (Cytometric Bead Array) Human Soluble Protein Flex Set System (BD Biosciences).
For confirmation we incubated EV with resting PBMC (6 hours) and measured TNFα release.

The next assay addresses T1, TACE (Homo sapiens, UniProt P78536).
T1 construct: endogenous in cells; host or cells: 293T cells transfected with Nef/mNAKC (TACE itself not transfected)
Kind of assay: GFP-proTNF-RFP cleavage and endogenous TACE activity in Nef/mNAKC transfected 293T cells. The assay is classed as cell-based. The following applies: exposure of cultured 293T cells to TAPI. The procedure:
Transfections into 293T cells and protein assays. Transient transfections into 293T cells as well as immunoprecipitations and immunoblots were performed as described previously (Baur et al., 1997; Witte et al., 2004; Wolf et al., 2008). In general 20 μg of cellular protein lysate and 10 μg of EV lysate were loaded per lane. The latter corresponded to the secretion from 2-4 mio 293T cells within 48 h. Endogenous TACE activity was measured using SensoLyte®520 TACE (α-Secretase) Activity Assay Kit from AnaSpec, according to the manufacturer's procedures. Cell lysates were generated from 293T cells 24 h after tranfection of Nef/mNAKC. […]
While TACE seemed to be activated by Nef/mNAKC, it was not clear whether and where the protease was functionally active. […] We constructed a GFP-proTNF-RFP fusion protein (G-proTNF-R; FIG. 5A), expecting that the full-length protein would give a yellow signal, which upon TACE-mediated cleavage would mature into prodomain-associated green (GFP) and TNFα-associated red (RFP) fluorescence. […]
In 293T cells the transfected G-proTNF-R construct gave a double positive (GFP/RFP) signal in FACS and a yellow staining in confocal images (FIGS. 5B and E). […] In addition, we measured an increased activity of endogenous TACE in Nef/mNAKC transfected 293T cells using a commercial, substrate-based activity assay (FIG. 20B). […]

T1 sequence (P78536 215-824): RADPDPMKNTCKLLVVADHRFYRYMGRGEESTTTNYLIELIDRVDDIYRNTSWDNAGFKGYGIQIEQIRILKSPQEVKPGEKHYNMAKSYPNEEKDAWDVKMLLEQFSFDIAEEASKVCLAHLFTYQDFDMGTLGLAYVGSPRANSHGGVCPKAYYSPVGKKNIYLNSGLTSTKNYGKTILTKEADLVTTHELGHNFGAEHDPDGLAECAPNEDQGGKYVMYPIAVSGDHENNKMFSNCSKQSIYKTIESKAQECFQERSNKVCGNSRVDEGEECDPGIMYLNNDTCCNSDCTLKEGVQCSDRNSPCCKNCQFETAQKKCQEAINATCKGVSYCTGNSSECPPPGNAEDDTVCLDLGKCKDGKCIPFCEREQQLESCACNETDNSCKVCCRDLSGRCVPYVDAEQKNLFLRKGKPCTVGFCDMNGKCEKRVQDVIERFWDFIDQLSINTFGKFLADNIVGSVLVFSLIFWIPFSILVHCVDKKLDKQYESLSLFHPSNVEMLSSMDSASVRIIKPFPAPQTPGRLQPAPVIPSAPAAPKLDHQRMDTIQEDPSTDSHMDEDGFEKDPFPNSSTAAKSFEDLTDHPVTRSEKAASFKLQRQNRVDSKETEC

Regarding `Oc1ccc2ccccc2c1SSc1c(O)ccc2ccccc12` [IPA-3], the TNFα release entry with resting PBMC is on record as “significantly reduced”.
In the case of `CC(C)C[C@H](CC(=O)NO)C(=O)N[C@@H](Cc1ccc2ccccc2c1)C(=O)N[C@@H](C)C(=O)NCCN` [TAPI], the TNFα release result in the assay with resting PBMC was “significantly reduced”. For the same molecule, at TACE, the “effect of Nef/mNAKC and TACE on G-proTNF-R cleavage and endogenous TACE activity” value is “reversed”.
Turning to `N#CC(=C(/N)Sc1ccccc1N)/C(C#N)=C(\N)Sc1ccccc1N` [U0126], the TNFα release result in the assay with resting PBMC is given as “significantly reduced”.
